In patent US20040191207A1, “ALPHA-HYDROXY ACID ESTER DRUG DELIVERY COMPOSITIONS AND METHODS OF USE” (priority 2003, published 2004):
Read-outs that look alike come from different tables or passages of the source.

How the values were obtained:
[1] = Protocol: Various pharmaceutical drug actives and prodrugs were screened to test for solubility in the compositions including alpha-hydroxy acid esters. Solubility was determined by adding various amounts of the drug to a composition including alpha-hydroxy acid esters, mixing, and then visually determining the solubility. The composition selected for the screening was Imwitor™ 380, a partially neutralized mixture of citric acid/lactic acid esters of partial glycerides. Imwitor™ 380 contains approximately 60% citric acid/lactic acid esters of partial glycerides, less than 32% 1-monoglyceride, and not more than 5% glycerol (Product Information Sheet, 26.13.199e/07.98; Sasol).
Mixtures were based on weight/weight and ranged from 5% drug/95% Imwitor™ 380 to 15% drug/85% Imwitor™ 380. The samples were prepared in 12 ml glass vials, containing a stirbar to ensure adequate mixing, and sealed with Teflon lined caps (National Scientific Co.; vial: part no B7800-12; cap: 15-425).

[2] = remark: listed apart in the source
Protocol: Mixtures were based on weight/weight and ranged from 5% drug/95% unneutralized Imwitor™ 380 to 10% drug/90% unneutralized Imwitor™ 380. The samples were prepared in scintillation vials (Research Products International) containing a stirbar to ensure adequate mixing.

Structure (SMILES)	Solubility [1]	Solubility [2]
CCOC(=O)C(C)(C)Oc1ccc(Cl)cc1 [Clofibrate, clofibrate]	>150 mg/gm	>100 mg/gm
CCCC(CCC)C(=O)O [Valproic Acid, valproic acid]	>150 mg/gm	>100 mg/gm
